Measurements as given in publication PMC7794472, “Direct entry of cell-penetrating peptide can be controlled by maneuvering the membrane curvature” (Scientific Reports, 2021).
Values belong to the molecule of their own block, whether it stands above or below them.

Tests used:
[1] = 0 °C (SOPC Tc 6 °C, gel state), CLSM observation; cited from earlier work
dermal fibroblasts = conditions: cited from earlier work
Description: Hoffmeister Effect of solute[12] is one of the known phenomena to control the hydration level of self-assembled amphiphiles. Chaotropic solutes (water structure breakers) such as sodium thiocyanate (NaSCN) and 1,3-butanediol (1,3-BG) make the membrane curvature positive. On the other hand, kosmotropic solutes (water structure maker ...

[2] = Leakage of internalized FITC-R8 and rhodamine from GUV; conditions: EPC GUV, L/P = 1000, 10 min, 37 °C, different osmotic pressures, with or without FITC-R8 in outer medium, fluorescence Ex 555/Em 575 nm, n = 5
Description: GUVs were prepared by the freeze-melting and natural swelling method[23]. Lipids dissolved in chloroform were placed into the vials, and then the solvent was evaporated. After being dried in vacuo for 16 h in the dark, lipid films were hydrated with 0.01 mg/mL of Rho/3 M KCl solution to give 20 mM lipid concentration. […] The suspension was vortexed for 1 min. This step (from freezing to vortexing) was repeated six times. It was transferred to a dialysis membrane (UC-8-32-25; Viskase Co. Ltd., Chicago, USA) and dialyzed against 20% PBS for at least two days at room temperature and, the dialysis solution was daily replaced by a new one. In this study, 20% PBS is defined as ‘isotonic solution’ and PBS solution at concentrations less than 20% as ‘hypotonic solution’ and at higher than 20% as ‘hypertonic solution’.
Penetration assay of CPP into GUV was conducted in the same manner previously reported[23]. […] The ratio of penetrated FITC-R8 and Rho leakage ratio was calculated using the following equations:1 P=A/U×100 2 L=IL-Rho/IL-Rho+INL-Rho×100
In Eq. (1), P is the penetrated ratio of FITC-R8 ratio, A is the amount of penetrated FITC-R8 into GUV calculated using the standard curve, and U is the amount of FITC-R8 used in this experiment. In Eq. (2), L is the leaked Rho ratio, and IL-Rho and INL-Rho are the fluorescence intensities of leaked and non-leaked Rho.

[3] = design: method as in doi:10.1246/cl.2012.1078; conditions: under the tested conditions, regardless of osmotic pressure change; cited from earlier work

Molecule: N=C(N)NCCC[C@H](NC(=O)[C@H](CCCNC(=N)N)NC(=O)[C@H](CCCNC(=N)N)NC(=O)[C@H](CCCNC(=N)N)NC(=O)[C@H](CCCNC(=N)N)NC(=O)[C@H](CCCNC(=N)N)NC(=O)[C@H](CCCNC(=N)N)NC(=O)[C@H](CCCNC(=N)N)NC(=O)CCCNC(=S)Nc1ccc2c(c1)C(=O)OC21c2ccc(O)cc2Oc2cc(O)ccc21)C(=O)O [FITC-R8]
cytolysis to SOPC GUV [1]: no cytolysis
cell viability with chaotropic solutes (NaSCN, 1,3-BG) (dermal fibroblasts): without interfering with cell viability

leakage of rhodamine pre-encapsulated in the GUV [2]: very low and consistent
Molecule: CCN(CC)c1ccc2c(-c3ccccc3C(=O)O)c3ccc(=[N+](CC)CC)cc-3oc2c1 [rhodamine, Rhodamine B]

Molecule: fluorescein isothiocyanate [FITC]
permeation through the membrane into the cytosol [3]: could not permeate through the membrane
